Data set [1] has as its system BMMC. The data set can be described thus: Anti-osteoclastogenesis activity in M-CSF/RANKL-induced C57BL/6J mouse BMMC cells assessed as inhibition of osteoclast differentiation at 1 uM incubated for 7 days by TRAP staining based analysis relative to control. It is filed as functional. The conditions noted are these: 168 h, time 7 day.
The subject of data set [2] is BMMC. As to the kind of experiment: Anti-osteoclastogenesis activity in M-CSF/RANKL-induced C57BL/6J mouse BMMC cells assessed as inhibition of osteoclast differentiation at 0.1 uM incubated for 7 days by TRAP staining based analysis relative to control. It is filed as functional. To be noted: 168 h, time 7 day.
Data set [3] in a line: Cytotoxicity against M-CSF induced C57BL/6J mouse BMMC cells assessed as cell viability at 10 uM incubated for 48 hrs by CCK-8 assay relative to control. It is filed as toxicity, cell-based. The conditions noted are these: read-out: Activity.
Data set [4] relates to BMMC. The data set can be described thus: Anti-osteoclastogenesis activity in M-CSF/RANKL-induced C57BL/6J mouse BMMC cells assessed as inhibition of osteoclast differentiation at 5 uM incubated for 7 days by TRAP staining based analysis relative to control. To be noted: 168 h, time 7 day. It is filed as functional.
The subject of data set [5] is BMMC. As to the kind of experiment: Anti-osteoclastogenesis activity in M-CSF/RANKL-induced C57BL/6J mouse BMMC cells assessed as inhibition of osteoclast differentiation at 10 uM incubated for 7 days by TRAP staining based analysis relative to control. The conditions noted are these: 168 h, time 7 day. It is filed as functional.

Take `C[C@H](C(=O)N1CCOCC1)[C@H]1CC[C@H]2[C@@H]3CC=C4C(C)(C)c5nnsc5C[C@]4(C)[C@H]3CC[C@]12C`: the inhibition at 1 µM in the data set on BMMC [1] came out at 91.9%. Further, the inhibition at 0.1 µM in the data set on BMMC [2] stood at 53.5%. The viability at 48 h, 10 µM in data set [3] is no less than 100%.
As for `CNC(=O)[C@@H](C)[C@H]1CC[C@H]2[C@@H]3CC=C4C(C)(C)c5nnsc5C[C@]4(C)[C@H]3CC[C@]12C`, the inhibition at 1 µM in the data set on BMMC [1] came out at 100%. Besides, the inhibition at 0.1 µM in the data set with BMMC [2] was found to be 49.3%. Also, the viability at 48 h, 10 µM in data set [3] is no less than 100%.
Taken in the same sequence, the figures for `CCNC(=O)C[C@@H](C)[C@H]1CC[C@H]2[C@@H]3CC=C4C(C)(C)c5nnsc5C[C@]4(C)[C@H]3CC[C@]12C` were 99.5%, 21.9% and no less than 100%.
With `CCCNC(=O)[C@@H](C)[C@H]1CC[C@H]2[C@@H]3CC=C4C(C)(C)c5nnsc5C[C@]4(C)[C@H]3CC[C@]12C`, in the data set on BMMC [1], the inhibition at 1 µM was 100%. The inhibition at 0.1 µM in the data set on BMMC [2] was 72.7%. Further, in data set [3], the viability at 48 h, 10 µM is no less than 100%.
For `CC(C)CNC(=O)[C@@H](C)[C@H]1CC[C@H]2[C@@H]3CC=C4C(C)(C)c5nnsc5C[C@]4(C)[C@H]3CC[C@]12C`, in the data set on BMMC [1], the inhibition at 1 µM came out at 100%. In addition, in the data set with BMMC [2], the inhibition at 0.1 µM is 72.1%. The viability at 48 h, 10 µM in data set [3] was no less than 100%.
In the case of `CCNC(=O)CCCC[C@@H](C)[C@H]1CC[C@H]2[C@@H]3CC=C4C(C)(C)c5nnsc5C[C@]4(C)[C@H]3CC[C@]12C`, the inhibition at 1 µM with BMMC [1] stood at 98.8%. Further, in the data set on BMMC [2], the inhibition at 0.1 µM worked out at 7.4%. The viability at 48 h, 10 µM in data set [3] was no less than 100%.
`C[C@H](C(=O)Nc1nccs1)[C@H]1CC[C@H]2[C@@H]3CC=C4C(C)(C)c5nnsc5C[C@]4(C)[C@H]3CC[C@]12C`: the inhibition at 1 µM in the data set on BMMC [1] was 85.9%. Also, the inhibition at 0.1 µM with BMMC [2] came out at 19.2%. Further, the viability at 48 h, 10 µM in data set [3] is no less than 100%.
`C[C@H](CO)[C@H]1CC[C@H]2[C@@H]3CC=C4C(C)(C)c5nccnc5C[C@]4(C)[C@H]3CC[C@]12C`: the inhibition at 5 µM in the data set with BMMC [4] worked out at 44.9%. Further, the inhibition at 10 µM in the data set with BMMC [5] was found to be 67.8%. For the same compound, the inhibition at 1 µM with BMMC [1] came out at 13.9%. In addition, in data set [3], the viability at 48 h, 10 µM is no less than 100%.
Take `C[C@H](CO)[C@H]1CC[C@H]2[C@@H]3CC=C4C(C)(C)c5nc(N)ncc5C[C@]4(C)[C@H]3CC[C@]12C`: the inhibition at 5 µM in the data set on BMMC [4] amounted to 87.3%. In addition, the inhibition at 10 µM in the data set on BMMC [5] turned out to be 100%. Besides, the inhibition at 1 µM in the data set with BMMC [1] turned out to be 25.9%. For the same compound, in data set [3], the viability at 48 h, 10 µM is no less than 100%.
As for `C[C@H](CO)[C@H]1CC[C@H]2[C@@H]3CC=C4C(C)(C)c5[nH]ncc5C[C@]4(C)[C@H]3CC[C@]12C`, in the data set on BMMC [4], the inhibition at 5 µM amounted to 87%. In addition, in the data set with BMMC [5], the inhibition at 10 µM amounted to 100%. Moreover, in the data set on BMMC [1], the inhibition at 1 µM was 34.6%. Besides, in data set [3], the viability at 48 h, 10 µM was no less than 100%.
Turning to `CCCCCCNC(=O)[C@@H](C)[C@H]1CC[C@H]2[C@@H]3CC=C4C(C)(C)c5nnsc5C[C@]4(C)[C@H]3CC[C@]12C`, the inhibition at 1 µM in the data set with BMMC [1] was 87.2%. Further, the inhibition at 0.1 µM in the data set on BMMC [2] is 50.1%. Also, in data set [3], the viability at 48 h, 10 µM was no less than 100%.
On to `C[C@H](CO)[C@H]1CC[C@H]2[C@@H]3CC=C4C(C)(C)c5nnsc5C[C@]4(C)[C@H]3CC[C@]12C`, for which the inhibition at 5 µM with BMMC [4] was determined as 100%. In the data set with BMMC [5], the inhibition at 10 µM came out at 100%. Also, in the data set with BMMC [1], the inhibition at 1 µM was 75.8%. The viability at 48 h, 10 µM in data set [3] is no less than 100%.
Turning to `C[C@H](C(=O)NC1CCCCC1)[C@H]1CC[C@H]2[C@@H]3CC=C4C(C)(C)c5nnsc5C[C@]4(C)[C@H]3CC[C@]12C`, the inhibition at 1 µM in the data set with BMMC [1] is 100%. In the data set with BMMC [2], the inhibition at 0.1 µM was 54%. Also, the viability at 48 h, 10 µM in data set [3] is no less than 100%.
Taken in the same sequence, the figures for `C[C@H](C(=O)Nc1ccc(F)cc1)[C@H]1CC[C@H]2[C@@H]3CC=C4C(C)(C)c5nnsc5C[C@]4(C)[C@H]3CC[C@]12C` were 91.9%, 47.5% and no less than 100%.
In the case of `C[C@H](CO)[C@H]1CC[C@H]2[C@@H]3CC=C4C(C)(C)c5nc6ccccc6cc5C[C@]4(C)[C@H]3CC[C@]12C`, the inhibition at 5 µM in the data set on BMMC [4] is 47.2%. In the data set on BMMC [5], the inhibition at 10 µM came to 93.9%. Besides, the inhibition at 1 µM with BMMC [1] was 37.8%. Further, the viability at 48 h, 10 µM in data set [3] is no less than 100%.
Take `COc1ccc(NC(=O)[C@@H](C)[C@H]2CC[C@H]3[C@@H]4CC=C5C(C)(C)c6nnsc6C[C@]5(C)[C@H]4CC[C@]23C)cc1`: in the data set on BMMC [1], the inhibition at 1 µM was 100%. Besides, the inhibition at 0.1 µM in the data set with BMMC [2] turned out to be 69.6%. Moreover, the viability at 48 h, 10 µM in data set [3] is no less than 100%.
With `C[C@H](C(=O)Nc1ccncc1)[C@H]1CC[C@H]2[C@@H]3CC=C4C(C)(C)c5nnsc5C[C@]4(C)[C@H]3CC[C@]12C`, the inhibition at 1 µM in the data set with BMMC [1] stood at 85.5%. Besides, the inhibition at 0.1 µM in the data set on BMMC [2] stood at 30.2%. Moreover, the viability at 48 h, 10 µM in data set [3] was no less than 100%.
Turning to `CCCCNC(=O)[C@@H](C)[C@H]1CC[C@H]2[C@@H]3CC=C4C(C)(C)c5nnsc5C[C@]4(C)[C@H]3CC[C@]12C`, in the data set with BMMC [1], the inhibition at 1 µM amounted to 100%. In the data set with BMMC [2], the inhibition at 0.1 µM was determined as 76.3%. The viability at 48 h, 10 µM in data set [3] is no less than 100%.
Take `C[C@H](C(=O)Nc1ccc(Br)cc1)[C@H]1CC[C@H]2[C@@H]3CC=C4C(C)(C)c5nnsc5C[C@]4(C)[C@H]3CC[C@]12C`: the inhibition at 1 µM with BMMC [1] stood at 65.1%. Besides, the inhibition at 0.1 µM in the data set on BMMC [2] was determined as 0%. Besides, the viability at 48 h, 10 µM in data set [3] was no less than 100%.
Taken in the same sequence, the figures for `C=CCNC(=O)[C@@H](C)[C@H]1CC[C@H]2[C@@H]3CC=C4C(C)(C)c5nnsc5C[C@]4(C)[C@H]3CC[C@]12C` were 98.3%, 61.1% and no less than 100%.
In the case of `CCNC(=O)CCC[C@@H](C)[C@H]1CC[C@H]2[C@@H]3CC=C4C(C)(C)c5nnsc5C[C@]4(C)[C@H]3CC[C@]12C`, the inhibition at 1 µM in the data set on BMMC [1] came out at 100%. In addition, the inhibition at 0.1 µM in the data set on BMMC [2] came out at 15.8%. Moreover, in data set [3], the viability at 48 h, 10 µM was no less than 100%.
Taken in the same sequence, the figures for `C[C@H](C(=O)O)[C@H]1CC[C@H]2[C@@H]3CC=C4C(C)(C)c5nnsc5C[C@]4(C)[C@H]3CC[C@]12C` were 86.8%, 45.8% and no less than 100%.
Take `CCNC(=O)CC[C@@H](C)[C@H]1CC[C@H]2[C@@H]3CC=C4C(C)(C)c5nnsc5C[C@]4(C)[C@H]3CC[C@]12C`: in the data set on BMMC [1], the inhibition at 1 µM was determined as 100%. For the same compound, in the data set on BMMC [2], the inhibition at 0.1 µM turned out to be 46.4%. Further, in data set [3], the viability at 48 h, 10 µM was no less than 100%.
Take `C[C@H](C(=O)Nc1ccc(Cl)cc1)[C@H]1CC[C@H]2[C@@H]3CC=C4C(C)(C)c5nnsc5C[C@]4(C)[C@H]3CC[C@]12C`: the inhibition at 1 µM in the data set on BMMC [1] came out at 81%. In addition, the inhibition at 0.1 µM in the data set on BMMC [2] was determined as 45.2%. Moreover, the viability at 48 h, 10 µM in data set [3] was no less than 100%.
